This note sets out measurements from publication PMC6364417, “Kinase inhibitor library screening identifies synergistic drug combinations effective in sensitive and resistant melanoma cells” (Journal of Experimental & Clinical Cancer Research : CR, 2019).

SMILES strings stand for the structures. Where two headings read alike, the source gives them in different places.

What all share (experiment): Kinase inhibitor library screening, PrestoBlue cell viability, 1 or 10 μM, 72 h
One assay has as its system 501Mel cells (parental). The conditions noted are these: for Cell viability in kinase inhibitor library screening, 501Mel Parental, 1μΜ / Cell viability in kinase inhibitor library screening, 501Mel Parental, 10μΜ: in %. The essentials:
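Cells are treated with each inhibitor at 1 or 10 μM, incubated 72 h, then PrestoBlue reagent is added and the plate is read. Data are normalised to untreated cells.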

The subject of assay [1] is 501Mel-GP cells (Dabrafenib-resistant). The following applies: for Cell viability in kinase inhibitor library screening, 501Mel GP, 1μΜ / Cell viability in kinase inhibitor library screening, 501Mel GP, 10μΜ: in %.
Assay [2] relates to 501Mel-XP cells (Vemurafenib-resistant). The conditions noted are these: for Cell viability in kinase inhibitor library screening, 501Mel XP, 1μΜ / Cell viability in kinase inhibitor library screening, 501Mel XP, 10μΜ: in %.
The test system of another assay is A375 cells (parental).
In assay [3] the test system is A375-GP cells (Dabrafenib-resistant).
In assay [4] the test system is A375-XP cells (Vemurafenib-resistant).
A further assay concerns IGR37 cells (parental). The conditions noted are these: for Cell viability in kinase inhibitor library screening, IGR37 Parental, 1μΜ / Cell viability in kinase inhibitor library screening, IGR37 Parental, 10μΜ: in %.
Assay [5] deals with IGR37-GP cells (Dabrafenib-resistant). The conditions noted are these: for Cell viability in kinase inhibitor library screening, IGR37 GP, 1μΜ: in %.
For assay [6], the system named is IGR37-XP cells (Vemurafenib-resistant). The conditions noted are these: for Cell viability in kinase inhibitor library screening, IGR37 XP, 1μΜ: in %.

Consider `Cc1cn(-c2cc(NC(=O)c3ccc(C)c(Nc4nccc(-c5cccnc5)n4)c3)cc(C(F)(F)F)c2)cn1` [Nilotinib (AMN-107)], for which the “cell viability (kinase inhibitor library screening)” value with 501Mel cells (parental) (501Mel Parental, 1μΜ, 72 h) is 89.8%; with 501Mel cells (parental) (501Mel Parental, 10μΜ, 72 h) it was 71.1%; in assay [1] (501Mel GP, 1μΜ, 72 h), 99.9%; in assay [1] (501Mel GP, 10μΜ, 72 h) it was 74.5%; in [2] (501Mel XP, 1μΜ, 72 h) it was 84.0%; in [2] (501Mel XP, 10μΜ, 72 h), 54.3%. Moreover, the “cell viability (kinase inhibitor library screening)” value in the assay with A375 cells (parental) (A375 Parental, 10μΜ, 72 h) was 66.2%; with A375 cells (parental) (A375 Parental, 1μΜ, 72 h) it was 102.9%; in [3] (A375 GP, 1μΜ, 72 h), 96.3%; in assay [3] (A375 GP, 10μΜ, 72 h), 48.3%; in [4] (A375 XP, 1μΜ, 72 h) it was 87.0%; in [4] (A375 XP, 10μΜ, 72 h), 57.9%. The “cell viability (kinase inhibitor library screening)” value in the assay on IGR37 cells (parental) (IGR37 Parental, 1μΜ, 72 h) is 95.3%; in the assay with IGR37 cells (parental) (IGR37 Parental, 10μΜ, 72 h) it was 73.7%; in assay [5] (IGR37 GP, 1μΜ, 72 h), 98.8%; in [5] (IGR37 GP, 10μΜ, 72 h), 35.4%; in assay [6] (IGR37 XP, 1μΜ, 72 h), 100.2%; in assay [6] (IGR37 XP, 10μΜ, 72 h), 1.4%.
In the case of `CNC(=O)c1cc(Oc2ccc(NC(=O)Nc3cc(C(C)(C)C)nn3-c3ccc4ncccc4c3)c(F)c2)ccn1` [DCC-2036 (Rebastinib)], the “cell viability (kinase inhibitor library screening)” value was 81.5% with 501Mel cells (parental) (501Mel Parental, 1μΜ, 72 h); 2.8% in the assay on 501Mel cells (parental) (501Mel Parental, 10μΜ, 72 h); 100.3% in assay [1] (501Mel GP, 1μΜ, 72 h); 2.0% in [1] (501Mel GP, 10μΜ, 72 h); 102.9% in assay [2] (501Mel XP, 1μΜ, 72 h); 0.261% in assay [2] (501Mel XP, 10μΜ, 72 h). Also, the “cell viability (kinase inhibitor library screening)” value worked out at 1.8% in the assay with A375 cells (parental) (A375 Parental, 10μΜ, 72 h); 55.4% with A375 cells (parental) (A375 Parental, 1μΜ, 72 h); 96.7% in [3] (A375 GP, 1μΜ, 72 h); 3.6% in assay [3] (A375 GP, 10μΜ, 72 h); 76.3% in assay [4] (A375 XP, 1μΜ, 72 h); 2.5% in [4] (A375 XP, 10μΜ, 72 h). In addition, the “cell viability (kinase inhibitor library screening)” value stood at 67.0% with IGR37 cells (parental) (IGR37 Parental, 1μΜ, 72 h); 20.7% with IGR37 cells (parental) (IGR37 Parental, 10μΜ, 72 h); 8.3% in [5] (IGR37 GP, 10μΜ, 72 h); 107.3% in assay [6] (IGR37 XP, 1μΜ, 72 h); 2.4% in [6] (IGR37 XP, 10μΜ, 72 h).
Regarding `CC(=O)Nc1nc(C)c(-c2ccc(Cl)c(S(=O)(=O)NCCO)c2)s1` [PIK-93], in the assay on 501Mel cells (parental), the “Cell viability in kinase inhibitor library screening, 501Mel Parental, 1μΜ” value amounted to 88.1 and the “Cell viability in kinase inhibitor library screening, 501Mel Parental, 10μΜ” value is 25.0. Besides, in assay [1], the “Cell viability in kinase inhibitor library screening, 501Mel GP, 1μΜ” value is 98.2 and the “Cell viability in kinase inhibitor library screening, 501Mel GP, 10μΜ” value stood at 25.1. In [2], the “Cell viability in kinase inhibitor library screening, 501Mel XP, 1μΜ” value is recorded as 90.7 and the “Cell viability in kinase inhibitor library screening, 501Mel XP, 10μΜ” value turned out to be 10.6. Moreover, in the assay with A375 cells (parental), the “Cell viability in kinase inhibitor library screening, A375 Parental, 1μΜ” value is reported as 97.3 and the “Cell viability in kinase inhibitor library screening, A375 Parental, 10μΜ” value worked out at 47.7. For the same compound, in assay [3], the “Cell viability in kinase inhibitor library screening, A375 GP, 1μΜ” value is 97.8 and the “Cell viability in kinase inhibitor library screening, A375 GP, 10μΜ” value is reported as 37.8. In assay [4], the “Cell viability in kinase inhibitor library screening, A375 XP, 1μΜ” value is listed as 88.7 and the “Cell viability in kinase inhibitor library screening, A375 XP, 10μΜ” value is reported as 36.0. Moreover, in the assay with IGR37 cells (parental), the “Cell viability in kinase inhibitor library screening, IGR37 Parental, 1μΜ” value is 96.9 and the “Cell viability in kinase inhibitor library screening, IGR37 Parental, 10μΜ” value worked out at 72.6. In addition, in [5], the Cell viability in kinase inhibitor library screening, IGR37 GP, 10μΜ stood at 59.9% and the “Cell viability in kinase inhibitor library screening, IGR37 GP, 1μΜ” value was 91.0. For the same compound, in assay [6], the Cell viability in kinase inhibitor library screening, IGR37 XP, 10μΜ is 27.5% and the “Cell viability in kinase inhibitor library screening, IGR37 XP, 1μΜ” value came out at 84.1.
On to `COc1ccc(COc2cc3oc(=O)c4cc(C(C)O)ccc4c3cc2OC)cc1` (stereo not drawn) [Palomid 529], for which the “Cell viability in kinase inhibitor library screening, 501Mel Parental, 1μΜ” value with 501Mel cells (parental) (501Mel Parental, 1μΜ, 72 h) is recorded as 87.4. For the same compound, the “Cell viability in kinase inhibitor library screening, 501Mel Parental, 10μΜ” value in the assay with 501Mel cells (parental) (501Mel Parental, 10μΜ, 72 h) stood at 80.1. The “Cell viability in kinase inhibitor library screening, 501Mel GP, 1μΜ” value in [1] (501Mel GP, 1μΜ, 72 h) is given as 90.2. The “Cell viability in kinase inhibitor library screening, 501Mel GP, 10μΜ” value in assay [1] (501Mel GP, 10μΜ, 72 h) is given as 80.5. In [2] (501Mel XP, 1μΜ, 72 h), the “Cell viability in kinase inhibitor library screening, 501Mel XP, 1μΜ” value is given as 95.5. The “Cell viability in kinase inhibitor library screening, 501Mel XP, 10μΜ” value in assay [2] (501Mel XP, 10μΜ, 72 h) is listed as 30.6. Moreover, the “Cell viability in kinase inhibitor library screening, A375 Parental, 10μΜ” value in the assay with A375 cells (parental) (A375 Parental, 10μΜ, 72 h) amounted to 83.6. The “Cell viability in kinase inhibitor library screening, A375 GP, 1μΜ” value in assay [3] (A375 GP, 1μΜ, 72 h) is recorded as 94.7. The “Cell viability in kinase inhibitor library screening, A375 GP, 10μΜ” value in assay [3] (A375 GP, 10μΜ, 72 h) is on record as 88.6. Moreover, in [4] (A375 XP, 1μΜ, 72 h), the “Cell viability in kinase inhibitor library screening, A375 XP, 1μΜ” value is 100.3. Further, in assay [4] (A375 XP, 10μΜ, 72 h), the “Cell viability in kinase inhibitor library screening, A375 XP, 10μΜ” value turned out to be 90.5. Further, in the assay with IGR37 cells (parental) (IGR37 Parental, 1μΜ, 72 h), the “Cell viability in kinase inhibitor library screening, IGR37 Parental, 1μΜ” value is on record as 102.9. In addition, in the assay on IGR37 cells (parental) (IGR37 Parental, 10μΜ, 72 h), the “Cell viability in kinase inhibitor library screening, IGR37 Parental, 10μΜ” value came out at 103.1. Further, the Cell viability in kinase inhibitor library screening, IGR37 GP, 10μΜ in [5] (IGR37 GP, 10μΜ, 72 h) came out at 75.1%. Also, the “Cell viability in kinase inhibitor library screening, IGR37 GP, 1μΜ” value in assay [5] (IGR37 GP, 1μΜ, 72 h) was 87.7. Besides, the Cell viability in kinase inhibitor library screening, IGR37 XP, 10μΜ in assay [6] (IGR37 XP, 10μΜ, 72 h) turned out to be 46.5%. Moreover, the “Cell viability in kinase inhibitor library screening, IGR37 XP, 1μΜ” value in assay [6] (IGR37 XP, 1μΜ, 72 h) came to 98.2.
With `N#Cc1c(O)c2c(-c3ccc(-c4ccccc4O)cc3)csc2[nH]c1=O` [A-769662], the “cell viability (kinase inhibitor library screening)” value in the assay with 501Mel cells (parental) (501Mel Parental, 1μΜ, 72 h) turned out to be 99.2%; with 501Mel cells (parental) (501Mel Parental, 10μΜ, 72 h), 97.1%; in assay [1] (501Mel GP, 10μΜ, 72 h), 87.9%; in assay [2] (501Mel XP, 1μΜ, 72 h), 97.4%; in [2] (501Mel XP, 10μΜ, 72 h), 85.6%; in the assay on A375 cells (parental) (A375 Parental, 10μΜ, 72 h), 97.0%. Moreover, the “cell viability (kinase inhibitor library screening)” value in the assay with A375 cells (parental) (A375 Parental, 1μΜ, 72 h) is recorded as 105.0%; in [3] (A375 GP, 10μΜ, 72 h), 96.0%; in assay [4] (A375 XP, 1μΜ, 72 h), 104.3%; in the assay on IGR37 cells (parental) (IGR37 Parental, 1μΜ, 72 h), 105.9%; in the assay on IGR37 cells (parental) (IGR37 Parental, 10μΜ, 72 h), 111.3%; in assay [5] (IGR37 GP, 10μΜ, 72 h), 94.7%. Besides, the “cell viability (kinase inhibitor library screening)” value is 104.5% in assay [6] (IGR37 XP, 1μΜ, 72 h) and 84.8% in assay [6] (IGR37 XP, 10μΜ, 72 h).
For the compound `CCN1CCN(C(=O)Cc2ccc(Nc3ncc(F)c(Nc4ccc(C(=O)Nc5ccccc5Cl)cc4)n3)cc2)CC1` [Aurora A Inhibitor I], the “cell viability (kinase inhibitor library screening)” value is 105.7% in the assay on 501Mel cells (parental) (501Mel Parental, 1μΜ, 72 h); 41.4% in the assay on 501Mel cells (parental) (501Mel Parental, 10μΜ, 72 h); 99.5% in [1] (501Mel GP, 1μΜ, 72 h); 29.4% in assay [1] (501Mel GP, 10μΜ, 72 h); 75.4% in assay [2] (501Mel XP, 1μΜ, 72 h); 4.3% in assay [2] (501Mel XP, 10μΜ, 72 h). Besides, the “cell viability (kinase inhibitor library screening)” value was 48.5% in the assay on A375 cells (parental) (A375 Parental, 10μΜ, 72 h); 96.9% with A375 cells (parental) (A375 Parental, 1μΜ, 72 h); 90.9% in assay [3] (A375 GP, 1μΜ, 72 h); 42.7% in [3] (A375 GP, 10μΜ, 72 h); 95.8% in assay [4] (A375 XP, 1μΜ, 72 h); 37.0% in assay [4] (A375 XP, 10μΜ, 72 h). The “cell viability (kinase inhibitor library screening)” value in the assay on IGR37 cells (parental) (IGR37 Parental, 1μΜ, 72 h) is 94.5%; in the assay with IGR37 cells (parental) (IGR37 Parental, 10μΜ, 72 h), 4.6%; in [5] (IGR37 GP, 1μΜ, 72 h), 90.4%; in [5] (IGR37 GP, 10μΜ, 72 h), 5.3%; in [6] (IGR37 XP, 1μΜ, 72 h) it was 92.1%; in assay [6] (IGR37 XP, 10μΜ, 72 h), 2.4%.
